# Results as given in patent US20240043390A1, “COMPOSITIONS AND METHODS FOR TREATING CANCER” (The Regents of the University of California, priority 2017, published 2024).
# Read-outs that look alike come from different tables or passages of the source.
# Experiments:
# HK301 cells = test: Annexin V apoptosis assay; assay type: cell-based, human; details: HK301 gliomaspheres, 72 hours, nutlin 2.5 μM
# Experimental: (§1) Cells were collected and analyzed for Annexin V and PI staining according to manufacturer's protocol (BD Biosciences). Briefly, cells were plated at 5×10^4 cells/ml and treated with appropriate drugs. Following indicated time points, cells were collected, trypsinized, washed with PBS, and stained with Annexin V and PI for 15 minutes. Samples were then analyzed using the BD LSRII flow cytometer.
# (§2) Annexin V staining was measured following 72 hrs of treatment. Using the Chalice software, the response of the combination was compared to its single agents. The combinatorial effects were calculated using the synergy score.
# [1] = system: patient-derived GBM gliomaspheres; test: Annexin V apoptosis assay; assay type: cell-based, human; details: for lethality in combination with nutlin: EGFRi non-responder cells (HK393, HK254)
# Experimental: as §1, §2
# [2] = Protein binding (fraction unbound) in blood and brain; assay type: in vitro ADME
# Description: (§3) Fu refers to “fraction unbound”.
# Kpuu = assay type: in vivo; details: average; for Kp uu: brain/blood
# Description: as §3
# [3] = Pharmacokinetic studies, plasma and brain; assay type: in vivo, male CD-1 mice; details: oral; JGK005 10 mg/kg, erlotinib 25 mg/kg; FIG. 1
# Experimental: Pharmacokinetic studies were performed on male CD-1 mice aged 8-10 weeks. Mice were dosed as indicated in duplicates. At the time points, whole blood was obtained by retro-orbital bleeding and brain tissue was harvested. Blood samples were centrifuged to obtain plasma and brain tissue was washed and homogenized. Samples were extracted with acetonitrile and supernatant was dried using a speed-vac. Dried samples were solubilized in 50:50:0.1 acetonitrile:water:formic acid and quantified on an Agilent 6400 series Triple Quadrupole LC/MS.
# GBM39 = test: GI50 assay, Cell Titer Glo, 3 days; assay type: cell-based, human; details: GBM39, FIG. 2
# HK301 = test: GI50 assay, Cell Titer Glo, 3 days; assay type: cell-based, human; details: HK301, FIG. 2
# Experimental: The GI50 Assays were performed using patient-derived glioblastoma cells. […] Cells were incubated for 3 days and then proliferation was assessed by Cell Titer Glo (Promega #G7570).
# [4] = system: HK393 intracranial xenografts; test: 18F-FDG PET/CT imaging of intracranial xenografts; assay type: in vivo, NSG mice; details: acute EGFRi (erlotinib 75 mg/kg)
# Experimental: (§4) Drugs were administered through oral gavage.
# (§5) Following 1 hr unconscious uptake, mice were taken off anesthesia but kept warm for another 5 hr of uptake. 6 hr after the initial administration of ^18F-FDG, mice were imaged using G8 PET/CT scanner (Sofie Biosciences). Per above, quantification was performed by drawing 3D regions of interest (ROI) using the AMIDE software.
# [5] = system: GBM39 intracranial xenografts; test: 18F-FDG PET/CT imaging of intracranial xenografts; assay type: in vivo, NSG mice; details: erlotinib 75 mg/kg, 15 hours post administration
# Experimental: as §4, §5
# gliomas = details: cited from earlier work
# HK393 and HK254 cells = test: 18F-FDG uptake assay in cells; assay type: cell-based, human; details: 4 hours, pictilisib 1 μM
# Experimental: Cells were plated at 5×10^4 cells/ml and treated with designated drugs for indicated time points. Following appropriate treatment, cells were collected and resuspended in glucose-free DMEM/F12 (USBiological) containing ^18F-FDG (radioactivity 1 μCi/mL). Cells were incubated at 37° C. for 1 hr and then washed three times with ice cold PBS. Radioactivity of each sample was then measured using a gamma counter.
smiles,measurement,setting,value
"O=CC[C@@H](O)[C@H](O)[C@H](O)CO [2DG, 2-deoxyglucose]",synergy with nutlin,HK301 cells,synergy with nutlin
same,lethality in combination with nutlin,[1],synergistic lethality
Fc1c(Cl)cccc1Nc1ncnc2cc3c(cc12)OCCO3 [JGK010],Bound (blood),[2]; blood (first line of each compound),99.48%
same,fraction unbound,"[2]; blood (first line of each compound), read-out: Fu (blood)",0.0052
same,Bound (brain),[2]; brain (second line of each compound),99.44%
same,fraction unbound,"[2]; brain (second line of each compound), read-out: Fu (brain)",0.0056
same,Kp uu,Kpuu,1.15
C#Cc1cccc(Nc2ncnc3cc4c(cc23)OCCO4)c1 [JGK005],CNS penetration,[3],good CNS penetration compared to erlotinib
same,activity against EGFR mutant glioblastoma,GBM39,lower activity than erlotinib
same,activity against EGFR mutant glioblastoma,HK301,lower activity than erlotinib
CC[C@H]1/C=C/C=C/C[C@@H](C)[C@H](O)[C@@](C)(O)C(=O)[C@@H](C)[C@H](O)[C@@H](C)C(=O)[C@@H](C)[C@H](O)[C@@H](C)/C=C/C(=O)O[C@@H]2[C@H](C)[C@H](CC1)O[C@]1(CC[C@H](C)[C@H](C[C@@H](C)O)O1)[C@H]2C [oligomycin],synergy with nutlin,HK301 cells,did not synergize with nutlin treatment
C#Cc1cccc(Nc2ncnc3cc(OCCOC)c(OCCOC)cc23)c1 [Erlotinib],18F-FDG uptake (PET),[4],no changes in ^18F-FDG uptake
same,18F-FDG uptake (PET),[5],rapidly reduced ^18F-FDG uptake
same,Kp uu,Kpuu,0.0513
same,apoptosis (annexin V staining),"[1]; non-responders, 72 hours of erlotinib exposure, 1 μM",−3%
same,response rates,gliomas,≤ 25%
COc1cc2ncnc(Nc3cccc(Cl)c3F)c2cc1OC(=O)N1CCN(C)C[C@H]1C [AZD3759],Bound (blood),[2],94.07%
same,Bound (brain),[2],97.23%
same,fraction unbound,[2],0.0277
same,fraction unbound,[2]; blood,0.0593
same,Kpuu (Avg),Kpuu,1.30
"Fc1c(Br)cccc1Nc1ncnc2cc3c(cc12)OCCO3 [JGK037, N-(3-Bromo-2-fluorophenyl)-7,8-dihydro[1,4]dioxino[2,3-g]quinazolin-4-amine]",Kpuu (Avg),Kpuu,1.2994
C=C(C)[C@H]1Cc2c(ccc3c2O[C@@H]2COc4cc(OC)c(OC)cc4[C@@H]2C3=O)O1 [rotenone],synergy with nutlin,HK301 cells,did not synergize with nutlin treatment
CS(=O)(=O)N1CCN(Cc2cc3nc(-c4cccc5[nH]ncc45)nc(N4CCOCC4)c3s2)CC1 [pictilisib],lethality in combination with nutlin,[1],synergistic lethality
same,18F-FDG uptake,HK393 and HK254 cells,significantly reduced ^18F-FDG uptake
